Results reported in US20250270200A1, “CTPS1 INHIBITORS AND USES THEREOF” (Nimbus Clotho, Inc., priority 2022, published 2025).

Biological target: T1, human CTPS1 (Homo sapiens, UniProt P17812)
T1 sequence (P17812 1-591): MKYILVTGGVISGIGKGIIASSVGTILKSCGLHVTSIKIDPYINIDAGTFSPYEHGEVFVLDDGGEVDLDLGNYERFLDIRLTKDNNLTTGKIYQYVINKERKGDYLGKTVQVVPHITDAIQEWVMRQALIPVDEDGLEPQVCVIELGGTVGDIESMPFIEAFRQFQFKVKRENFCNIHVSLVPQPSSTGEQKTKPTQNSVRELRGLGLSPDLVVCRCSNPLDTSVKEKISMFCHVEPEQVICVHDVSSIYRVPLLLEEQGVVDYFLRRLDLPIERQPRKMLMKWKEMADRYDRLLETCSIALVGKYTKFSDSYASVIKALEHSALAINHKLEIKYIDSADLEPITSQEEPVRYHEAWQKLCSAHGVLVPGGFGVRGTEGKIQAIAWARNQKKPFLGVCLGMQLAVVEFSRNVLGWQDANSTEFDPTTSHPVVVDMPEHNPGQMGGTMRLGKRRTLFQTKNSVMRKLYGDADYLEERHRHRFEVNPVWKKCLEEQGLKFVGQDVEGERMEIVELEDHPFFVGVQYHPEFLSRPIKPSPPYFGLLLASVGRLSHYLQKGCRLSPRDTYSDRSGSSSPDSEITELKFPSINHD
Test: ADP-Glo assay, human CTPS1 enzyme inhibition
Type: biochemical
Details: wild-type human CTPS1, 25 nM enzyme; ADP-Glo; read-out: ADP-Glo_WT_hCTPS1—25 nM_IC50 (IC50)
Procedure, shortened: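 Full-length tagged human CTPS1 (25 nM) pre-incubated 10 min at 25° C with compound, then 10 min with ATP (120 μM) and UTP (160 μM); reaction started with L-glutamine (100 μM) and GTP (60 μM), 1% DMSO, in HEPES pH 7.4, 10 mM Mg2+, 5 mM KCl, 2 mM DTT. Run within linear phase at 25° C; ADP measured by ADP-Glo luminescence.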

Row | Structure (SMILES) | IC50
1 | CCOc1cncc(-c2cnc(C(=O)N[C@@H](CO)c3cc(NS(=O)(=O)C4CC4)ccn3)s2)n1 [I-262, (R)-N-(1-(4-(cyclopropanesulfonamido)pyridin-2-yl)-2-hydroxyethyl)-5-(6-ethoxypyrazin-2-yl)thiazole-2-carboxamide] | 25 to 50 nM
2 | CCOc1cncc(-c2cnc(C(=O)N[C@H](CO)c3cc(NS(=O)(=O)C4CC4)ccn3)s2)n1 [I-263, (S)-N-(1-(4-(cyclopropanesulfonamido)pyridin-2-yl)-2-hydroxyethyl)-5-(6-ethoxypyrazin-2-yl)thiazole-2-carboxamide] | 5 to 25 nM
3 | CCOc1cncc(-c2cnc(C(=O)N[C@H](c3cc(NS(=O)(=O)C4CC4)ccn3)[C@@H](C)O)s2)n1 [I-264, N-((1R,2R)-1-(4-(cyclopropanesulfonamido)pyridin-2-yl)-2-hydroxypropyl)-5-(6-ethoxypyrazin-2-yl)thiazole-2-carboxamide] | 5 to 25 nM
4 | CCOc1cncc(-c2cnc(C(=O)N[C@@H](c3cc(NS(=O)(=O)C4CC4)ccn3)[C@@H](C)O)s2)n1 [I-265, N-((1S,2R)-1-(4-(cyclopropanesulfonamido)pyridin-2-yl)-2-hydroxypropyl)-5-(6-ethoxypyrazin-2-yl)thiazole-2-carboxamide] | 5 to 25 nM
5 | CCOc1cncc(-c2cnc(C(=O)N[C@H](c3cc(NS(=O)(=O)C4CC4)ccn3)[C@H](C)O)s2)n1 [I-266, N-((1R,2S)-1-(4-(cyclopropanesulfonamido)pyridin-2-yl)-2-hydroxypropyl)-5-(6-ethoxypyrazin-2-yl)thiazole-2-carboxamide] | 5 to 25 nM
6 | CCOc1cncc(-c2cnc(C(=O)N[C@H](c3cc(NS(=O)(=O)C4CC4)ccn3)[C@@H](C)O)s2)n1 [I-267, N-((1R,2R)-1-(4-(cyclopropanesulfonamido)pyridin-2-yl)-2-hydroxypropyl)-5-(6-ethoxypyrazin-2-yl)thiazole-2-carboxamide] | 5 to 25 nM
7 | CCOc1cncc(-c2cnc(C(=O)N[C@H](COC)c3ccnc(NS(=O)(=O)C4CC4)n3)s2)n1 [I-268, (S)-N-(1-(2-(cyclopropanesulfonamido)pyrimidin-4-yl)-2-methoxyethyl)-5-(6-ethoxypyrazin-2-yl)thiazole-2-carboxamide] | 25 to 50 nM
8 | CCOc1cncc(-c2cnc(C(=O)N[C@@H](c3cc(NS(=O)(=O)C4CC4)ccn3)[C@@H](C)O)s2)n1 [I-269, N-((1S,2R)-1-(4-(cyclopropanesulfonamido)pyridin-2-yl)-2-hydroxypropyl)-5-(6-ethoxypyrazin-2-yl)thiazole-2-carboxamide] | ≤ 5 nM
9 | CCOc1cncc(-c2cnc(C(=O)N[C@@H](c3cc(NS(=O)(=O)C4CC4)ccn3)[C@H](C)O)s2)n1 [I-270, N-((1S,2S)-1-(4-(cyclopropanesulfonamido)pyridin-2-yl)-2-hydroxypropyl)-5-(6-ethoxypyrazin-2-yl)thiazole-2-carboxamide] | ≤ 5 nM
10 | CCOc1cncc(-c2cnc(C(=O)N[C@@H](c3cc(NS(=O)(=O)C4CC4)ccn3)C(C)(C)O)s2)n1 [I-275, (S)-N-(1-(4-(cyclopropanesulfonamido)pyridin-2-yl)-2-hydroxy-2-methylpropyl)-5-(6-ethoxypyrazin-2-yl)thiazole-2-carboxamide] | 25 to 50 nM
11 | CCOc1cncc(-c2cnc(C(=O)N[C@H](c3cc(NS(=O)(=O)C4CC4)ccn3)C(C)(C)O)s2)n1 [I-276, (R)-N-(1-(4-(cyclopropanesulfonamido)pyridin-2-yl)-2-hydroxy-2-methylpropyl)-5-(6-ethoxypyrazin-2-yl)thiazole-2-carboxamide] | 5 to 25 nM
12 | CCOc1cncc(-c2ccc(C(=O)N[C@@H](COC)c3cc(NS(=O)(=O)C4CC4)ccn3)cc2)n1 [I-279, (R)-N-(1-(4-(cyclopropanesulfonamido)pyridin-2-yl)-2-methoxyethyl)-4-(6-ethoxypyrazin-2-yl)benzamide] | 5 to 25 nM
13 | CCOc1cncc(-c2ccc(C(=O)N[C@H](COC)c3cc(NS(=O)(=O)C4CC4)ccn3)cc2)n1 [I-280, (S)-N-(1-(4-(cyclopropanesulfonamido)pyridin-2-yl)-2-methoxyethyl)-4-(6-ethoxypyrazin-2-yl)benzamide] | 25 to 50 nM
14 | CCOc1cncc(-c2ccc(C(=O)N[C@@H](COC)c3cc(NS(=O)(=O)C4CC4)ccn3)c(F)c2)n1 [I-282, (R)-N-(1-(4-(cyclopropanesulfonamido)pyridin-2-yl)-2-methoxyethyl)-4-(6-ethoxypyrazin-2-yl)-2-fluorobenzamide] | 25 to 50 nM
15 | CCOc1cncc(-c2ccc(C(=O)N[C@H](COC)c3cc(NS(=O)(=O)C4CC4)ccn3)c(F)c2)n1 [I-283, (S)-N-(1-(4-(cyclopropanesulfonamido)pyridin-2-yl)-2-methoxyethyl)-4-(6-ethoxypyrazin-2-yl)-2-fluorobenzamide] | 50 to 100 nM
16 | COC[C@H](NC(=O)c1ccc(-c2cnn3ccc(Cl)cc23)cc1F)c1cc(NS(=O)(=O)C2CC2)ccn1 [I-284, (R)-4-(5-chloropyrazolo[1,5-a]pyridin-3-yl)-N-(1-(4-(cyclopropanesulfonamido)pyridin-2-yl)-2-methoxyethyl)-2-fluorobenzamide] | > 100 nM

Next, values leading:

Row | IC50 | Structure (SMILES)
17 | 5 to 25 nM | CCOc1cncc(-c2cnc(C(=O)N[C@@H](c3cc(NS(=O)(=O)C4CC4)ncn3)[C@H]3CCOC3)s2)n1 [I-258, N-((R)-(6-(cyclopropanesulfonamido)pyrimidin-4-yl)((R)-tetrahydrofuran-3-yl)methyl)-5-(6-ethoxypyrazin-2-yl)thiazole-2-carboxamide]
18 | 5 to 25 nM | CCOc1cncc(-c2cnc(C(=O)N[C@H](c3cc(NS(=O)(=O)C4CC4)ncn3)[C@H]3CCOC3)s2)n1 [I-259, N-((S)-(6-(cyclopropanesulfonamido)pyrimidin-4-yl)((R)-tetrahydrofuran-3-yl)methyl)-5-(6-ethoxypyrazin-2-yl)thiazole-2-carboxamide]
19 | 5 to 25 nM | O=C(N[C@H](c1ccnc(NS(=O)(=O)C2CC2)n1)[C@H]1CCOC1)c1ncc(-c2cnn3ccc(Cl)cc23)s1 [I-260, 5-(5-chloropyrazolo[1,5-a]pyridin-3-yl)-N-((S)-(2-(cyclopropanesulfonamido)pyrimidin-4-yl)((R)-tetrahydrofuran-3-yl)methyl)thiazole-2-carboxamide]
20 | 5 to 25 nM | O=C(N[C@H](c1ccnc(NS(=O)(=O)C2CC2)n1)[C@@H]1CCOC1)c1ncc(-c2cnn3ccc(Cl)cc23)s1 [I-261, 5-(5-chloropyrazolo[1,5-a]pyridin-3-yl)-N-((S)-(2-(cyclopropanesulfonamido)pyrimidin-4-yl)((S)-tetrahydrofuran-3-yl)methyl)thiazole-2-carboxamide]
21 | 5 to 25 nM | C[C@@H](O)[C@H](NC(=O)c1ncc(-c2cnn3ccc(Cl)cc23)s1)c1cc(NS(=O)(=O)C2CC2)ccn1 [I-271, 5-(5-chloropyrazolo[1,5-a]pyridin-3-yl)-N-((1R,2R)-1-(4-(cyclopropanesulfonamido)pyridin-2-yl)-2-hydroxypropyl)thiazole-2-carboxamide]
22 | 5 to 25 nM | C[C@H](O)[C@H](NC(=O)c1ncc(-c2cnn3ccc(Cl)cc23)s1)c1cc(NS(=O)(=O)C2CC2)ccn1 [I-272, 5-(5-chloropyrazolo[1,5-a]pyridin-3-yl)-N-((1R,2S)-1-(4-(cyclopropanesulfonamido)pyridin-2-yl)-2-hydroxypropyl)thiazole-2-carboxamide]
23 | 5 to 25 nM | C[C@H](O)[C@@H](NC(=O)c1ncc(-c2cnn3ccc(Cl)cc23)s1)c1cc(NS(=O)(=O)C2CC2)ccn1 [I-273, 5-(5-chloropyrazolo[1,5-a]pyridin-3-yl)-N-((1S,2S)-1-(4-(cyclopropanesulfonamido)pyridin-2-yl)-2-hydroxypropyl)thiazole-2-carboxamide]
24 | 5 to 25 nM | C[C@@H](O)[C@@H](NC(=O)c1ncc(-c2cnn3ccc(Cl)cc23)s1)c1cc(NS(=O)(=O)C2CC2)ccn1 [I-274, 5-(5-chloropyrazolo[1,5-a]pyridin-3-yl)-N-((1S,2R)-1-(4-(cyclopropanesulfonamido)pyridin-2-yl)-2-hydroxypropyl)thiazole-2-carboxamide]
25 | 50 to 100 nM | CC(C)(O)[C@H](NC(=O)c1ncc(-c2cnn3ccc(Cl)cc23)s1)c1cc(NS(=O)(=O)C2CC2)ccn1 [I-277, (R)-5-(5-chloropyrazolo[1,5-a]pyridin-3-yl)-N-(1-(4-(cyclopropanesulfonamido)pyridin-2-yl)-2-hydroxy-2-methylpropyl)thiazole-2-carboxamide]
26 | 50 to 100 nM | CC(C)(O)[C@@H](NC(=O)c1ncc(-c2cnn3ccc(Cl)cc23)s1)c1cc(NS(=O)(=O)C2CC2)ccn1 [I-278, (S)-5-(5-chloropyrazolo[1,5-a]pyridin-3-yl)-N-(1-(4-(cyclopropanesulfonamido)pyridin-2-yl)-2-hydroxy-2-methylpropyl)thiazole-2-carboxamide]
27 | 5 to 25 nM | CCOc1cncc(-c2cnc(C(=O)N[C@@H](COC)c3ccnc(NS(=O)(=O)C4CC4)n3)s2)n1 [I-281, (R)-N-(1-(2-(cyclopropanesulfonamido)pyrimidin-4-yl)-2-methoxyethyl)-5-(6-ethoxypyrazin-2-yl)thiazole-2-carboxamide]
